From patent US8501695B2, “Tissue kallikrein for the treatment of diseases associated with amyloid protein” (DiaMedica, Inc., priority 2007, dated 2013)

Tests used:
[1] = tested on: rat mixed cortical cultures (RMCC); assay: Aβ1-42 toxicity in rat mixed cortical cultures, LDH measurement; format: cell-based; conditions: for LDH release following Aβ1-42 insult: study arm A, B or C
Description: (§1) Whether pre-treatment with tissue kallikrein protects rat mixed cortical cultures against exposure to human amyloid beta peptide (Aβ1-42) was investigated. Cell death was analyzed by LDH-release, an indication of necrosis, and cell viability was also analyzed by neuronal cell count. First (Study Arm A), tissue kallikrein was added to the cells only prior to the Aβ1-42 insult (at −24 h and at −30 min). Whereas in the second part (Study Arm B), tissue kallikrein was added to the cells prior to (−30 min) and also at +24 h after the Aβ1-42 insult. At the +24 h time point, cell culture media were not changed (tissue kallikrein or corresponding amount of vehicle was added to the wells), whereas at −24 h and −30 min time point cell culture media were changed.
(§2) […] Cell Culture. Mixed cortical cultures were prepared from E18 Wistar rat embryos (National Animal Center, Kuopio, Finland). The cortices were dissected out, and the tissue cut to small pieces. The cells were separated by 15-min incubation with DNase and papain. The cells were collected by centrifugation (1500 rpm, 5 min). The tissue was triturated with a pipette and the cells were plated on poly-L-lysine-coated 48-well plates, 300,000 cells/cm^2, in MEM (2 g/L glucose) supplemented with 2 mM glutamine, 0.1 μg/ml gentamicin, 10% heat-inactivated fetal bovine serum (FBS-HI) and 10% heat-inactivated horse serum (HS-HI). After 3-4 h, the media were changed to MEM (2 g/L glucose) supplemented with 2 mM glutamine, 0.1 μg/ml gentamicin, 5% HS-HI. After three days in vitro, media containing MEM (2 g/L glucose) supplemented with glutamine, gentamicin, and 5% of both sera were changed to the cells. On day 6 in vitro, the unwanted cell division was inhibited by adding cytosine arabinoside (10 μM final concentration) for 24 h. The cultures were refed with MEM (2 g/L glucose) supplemented with glutamine, gentamicin, and 5% HS-HI before experiments.
(§3) Aβ1-42 Exposure. Tissue kallikrein (SEQ ID NO:1) was dissolved and further diluted in MEM supplemented with glucose, glutamine, gentamicin, and 5% HS-HI. As a control for total neuronal death, 300 μM N-methyl-D-aspartic acid (NMDA) for 48 h was used, and 10 μM Aβ1-42 for 48 h was used to induce approximately 30-50% cell death. Wells treated with media only served as 0-control. Tissue kallikrein or vehicle was pipetted to the cells −24 h and −30 min before adding 10 μM Aβ1-42 (final concentration). Tissue kallikrein or vehicle was again pipetted to the cells at +24 h after exposure.
LDH Measurement. After 48 h, the culture media of all wells were collected, and possible cell debris was removed by centrifugation (13,000 rpm for 3 min). A 100 μl aliquot was pipetted into a microtiter plate as duplicates, and equal amount of LDH reagent was pipetted to the wells. The absorbance at 340 nm was measured immediately using a 3 min kinetic measurement protocol in Multiskan ELISA reader (Labsystems, Finland). The change in absorbance/min was determined, which was directly proportional to the released LDH. The remaining supernatant (50 μl) was snap-frozen in dry ice for storage.
(§4) Data Analysis. The number of wells per compound concentration used was 6 (n=6). Five concentrations of Tissue kallikrein were studied (0.001, 0.01, 0.1, 1, 10 μg/ml) in both study arms. Statistical analysis was performed using StatsDirect statistical software. The values were analyzed by one-way ANOVA followed by Dunnet's test (comparison to the vehicle-treated group). Results are presented as mean±standard deviation (SD) and differences are considered to be statistically significant at the P<0.05 level.

[2] = tested on: rat mixed cortical cultures (RMCC); assay: Aβ1-42 toxicity in rat mixed cortical cultures, neuronal survival (NeuN cell count); format: cell-based; conditions: 1 nM, 5 nM, 10 nM, 50 nM and 100 nM; study arm A, B or C
Description: as §1, §2, §3
Immunocytochemistry for Neuronal Survival. For neuronal counts, the cultures were fixed with 4% paraformaldehyde in 0.01 M PBS for 30 min and washed twice with PBS. The fixed cells were first permeabilized, and non-specific binding blocked by 30 min incubation with blocking buffer containing 1% bovine serum albumin and 0.3% Triton® X-100 in PBS. Anti-neuronal nuclei antibody (anti-NeuN, dilution 1:500, Chemicon, Temecula, Calif.) was used as the primary antibody. The cells were incubated with the primary antibody for 48 h, followed by incubation with a biotinylated secondary antibody (1:200, Vector Labs) for 2 h, and the avidin-biotin-peroxidase complex (ABC-reagent, 1:200, Vector ABC Elite Kit, Vector Labs) for 2 h. The positive cells were visualized using Ni-enhanced DAB as a substrate (DAB Substrate kit, Vector Labs). The NeuN immunopositive neurons were counted using a light microscope. Altogether, 2 fields of each well were counted. The results are shown as percent viable neurons.
as §4, with “Five concentrations of Tissue kallikrein were studied (0.001, 0.01, 0.1, 1, 10 μg/ml) in both study arms.” left out

Q: For “lysyl-bradykinin [kallidin, reference compound]”, which “LDH release following Aβ1-42 insult” value ([1]; 1 nM, 5 nM, 10 nM, 50 nM and 100 nM) is on record?
A: did not alter LDH release

Q: What about the “LDH release following Aβ1-42 insult” value ([1]; 1 μM and 10 μM) of the same substance?
A: did alter LDH release

Q: What about the “cell death following Aβ1-42 insult (LDH)” value ([1]; 100 μM, compared to Aβ1-42 insult alone) of the same substance?
A: significantly potentated cell death

Q: What about the “cell counts (survival) following Aβ1-42 insult” value [2] of the same substance?
A: did not affect cell counts
